Here are results for one compound from paper PMC6628435, “Chemical Synthesis, Proper Folding, Nav Channel Selectivity Profile and Analgesic Properties of the Spider Peptide Phlotoxin 1” (Toxins, 2019).

Bridge positions count the residues as written; N and C are the ends. Peptide text beside a SMILES is read from it.

In one data set the target is T1, hNav1.6 (Homo sapiens, UniProt Q9UQD0).
T1 construct: expressed in transfected cells; host or cells: HEK293 cells
In words: Automated patch-clamp dose-response on hNav1.6 expressed in HEK293 cells. The class given is cell-based. Particulars: 15 to 23 cells per concentration, read-out: calculated IC50. The text has this:
Following our initial screen for the selectivity of synthetic PhlTx1 and the discovery that Nav1.7 was the main target, we decided to further evaluate the activity of PhlTx1. We used a CHO mammalian cell line expressing the human Nav1.7 instead of Xenopus oocytes for the pharmacological evaluation. To this end, we used an automated patch-clamp system, the Nanion syncropatch 384PE, and a standardized robotic method from Beckmann to apply PhlTx1 in the recording chambers and collect the kinetic information of Nav1.7 current from a high number of Nav1.7-expressing cells. The syncropatch 384PE has the potential to record from 384 cells at a time. 100-ms pulses from −100 mV to −10 mV were applied at a frequency of 0.2 Hz and various concentrations of PhlTx1 were applied to the cells. An example of a Nav1.7 current recording is illustrated in Figure 6A along with the effect of 100 nM PhlTx1. […]
PhlTx1 and other Nav1.7-acting toxins were investigated on CHO cells expressing the human Nav1.7 channel using the Automated patch-clamp system from Nanion (München, Germany), the SyncroPatch 384PE. […] Percentages of current inhibitions were measured at the end of a 12- to 15-min application time (12-min for fast blocking toxins; 15-min for slow blocking ones). […]

The conditions of data set [1]: mice; PhlTx1 100 pmoles or morphine 0.25 mg in 10 µL.

A word on the IC50: it is the concentration that inhibits the measured activity by half.

T1 sequence (Q9UQD0 whole entry): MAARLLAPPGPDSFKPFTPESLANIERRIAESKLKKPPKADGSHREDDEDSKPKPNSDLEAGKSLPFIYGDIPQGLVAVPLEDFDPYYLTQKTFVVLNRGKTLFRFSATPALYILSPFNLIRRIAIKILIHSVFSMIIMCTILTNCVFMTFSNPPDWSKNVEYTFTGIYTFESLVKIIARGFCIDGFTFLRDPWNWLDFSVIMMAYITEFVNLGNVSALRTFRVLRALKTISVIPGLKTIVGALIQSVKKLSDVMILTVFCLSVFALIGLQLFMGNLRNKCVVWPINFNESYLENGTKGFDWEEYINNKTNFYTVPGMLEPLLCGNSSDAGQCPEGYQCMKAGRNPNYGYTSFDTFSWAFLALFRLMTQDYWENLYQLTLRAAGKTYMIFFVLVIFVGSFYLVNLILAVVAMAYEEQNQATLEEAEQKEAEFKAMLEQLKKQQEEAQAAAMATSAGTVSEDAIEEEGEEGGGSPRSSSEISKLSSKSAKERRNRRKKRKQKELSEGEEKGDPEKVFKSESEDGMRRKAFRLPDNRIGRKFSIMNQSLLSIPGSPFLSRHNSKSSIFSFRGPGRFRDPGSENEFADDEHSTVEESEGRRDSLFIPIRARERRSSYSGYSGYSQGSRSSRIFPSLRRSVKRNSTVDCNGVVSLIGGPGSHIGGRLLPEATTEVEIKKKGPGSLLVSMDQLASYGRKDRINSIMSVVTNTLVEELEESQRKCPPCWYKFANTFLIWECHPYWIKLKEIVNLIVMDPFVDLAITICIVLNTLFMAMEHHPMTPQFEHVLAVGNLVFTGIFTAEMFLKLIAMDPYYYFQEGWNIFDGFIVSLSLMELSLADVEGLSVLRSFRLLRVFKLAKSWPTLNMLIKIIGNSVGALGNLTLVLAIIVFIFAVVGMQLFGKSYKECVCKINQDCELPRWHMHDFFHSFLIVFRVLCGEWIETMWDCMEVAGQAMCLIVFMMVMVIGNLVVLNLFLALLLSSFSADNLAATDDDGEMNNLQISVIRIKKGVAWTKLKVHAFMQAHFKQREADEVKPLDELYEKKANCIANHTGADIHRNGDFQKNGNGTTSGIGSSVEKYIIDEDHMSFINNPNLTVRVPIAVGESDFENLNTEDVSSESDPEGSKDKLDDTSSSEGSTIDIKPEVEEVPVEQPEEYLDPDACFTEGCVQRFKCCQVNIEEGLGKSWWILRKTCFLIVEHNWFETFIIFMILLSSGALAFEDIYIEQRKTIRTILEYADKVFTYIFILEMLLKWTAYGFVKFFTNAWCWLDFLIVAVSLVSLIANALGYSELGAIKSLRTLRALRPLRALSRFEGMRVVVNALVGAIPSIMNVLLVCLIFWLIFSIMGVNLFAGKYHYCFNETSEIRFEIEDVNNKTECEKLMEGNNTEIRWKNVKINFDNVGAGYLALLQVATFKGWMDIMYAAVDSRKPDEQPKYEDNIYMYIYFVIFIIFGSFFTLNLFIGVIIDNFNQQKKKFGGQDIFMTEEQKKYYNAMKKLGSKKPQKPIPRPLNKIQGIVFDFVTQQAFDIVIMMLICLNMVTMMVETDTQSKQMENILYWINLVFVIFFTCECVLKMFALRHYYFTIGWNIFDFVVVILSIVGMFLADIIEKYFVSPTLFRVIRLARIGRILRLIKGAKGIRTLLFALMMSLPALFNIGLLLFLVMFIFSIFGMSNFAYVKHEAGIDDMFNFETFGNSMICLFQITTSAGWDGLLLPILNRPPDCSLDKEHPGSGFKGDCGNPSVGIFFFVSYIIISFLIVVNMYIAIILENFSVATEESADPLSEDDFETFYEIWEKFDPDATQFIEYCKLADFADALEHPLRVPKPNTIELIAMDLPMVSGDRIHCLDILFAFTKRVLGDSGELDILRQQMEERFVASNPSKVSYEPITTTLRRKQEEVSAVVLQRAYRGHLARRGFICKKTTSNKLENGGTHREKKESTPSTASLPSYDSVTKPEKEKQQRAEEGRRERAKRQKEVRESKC

Regarding `CC(C)C[C@@H]1NC(=O)[C@@H](NC(=O)[C@H](C)N)CSSC[C@@H]2NC(=O)[C@@H]3CSSC[C@@H](C(=O)N[C@@H](CCCNC(=N)N)C(=O)N[C@@H](Cc4ccc(O)cc4)C(=O)N[C@@H](CCCCN)C(=O)N[C@@H](CC(C)C)C(=O)N[C@@H](Cc4ccccc4)C(=O)O)NC(=O)[C@H](Cc4c[nH]c5ccccc45)NC(=O)[C@@H]4CCCN4C(=O)[C@H](Cc4ccc(O)cc4)NC(=O)[C@H](CCCCN)NC(=O)[C@H](Cc4c[nH]c5ccccc45)NC(=O)[C@H](CCC(=O)O)NC(=O)[C@H](CSSC[C@H](NC(=O)[C@H](CO)NC(=O)[C@H](CC(=O)O)NC(=O)[C@H](Cc4c[nH]c5ccccc45)NC(=O)[C@H](CCC(N)=O)NC(=O)CNC1=O)C(=O)N[C@@H](CC(=O)O)C(=O)N1CCC[C@H]1C(=O)N[C@@H](CCCCN)C(=O)N[C@@H](C)C(=O)N[C@@H](CO)C(=O)N[C@@H](CCCCN)C(=O)N3)NC(=O)[C@H](C)NC(=O)[C@H](Cc1ccc(O)cc1)NC(=O)[C@H](CC(N)=O)NC(=O)[C@@H]1CCCN1C2=O` [PhlTx1, Phlotoxin-1] (H-ACLGQWDSCDPKASKCCPNYACEWKYPWCRYKLF-OH; disulfide 2-17, 9-22, 16-29; N-terminus and C-terminus assumed), the half-maximal inhibitory concentration (IC50) at hNav1.6 was above 3 µM. Also, the “neurotoxicity after intrathecal injection” value in data set [1] is “no neurotoxicity was observed”.
